From US20240382473A1, “Combination Therapies for Treatment of Myelodysplastic Syndrome” (priority 2019, published 2024)

Tests used:
MOLM13 xenograft model = experiment: MOLM13 xenograft model, tumor volume and survival; assay type: in vivo; details: aggressive daily dosing, tumor bearing mice
Description: FIGS. 31A and 31B show results from sequential dosing of alvocidib and HMAs in a MOLM13 model for MDS/sAML. HMA dosing sensitized AML cells to sequential dosing and improved survival in vivo. Alvocidib, azacytidine, and decitabine activity were assessed in the MOLM13 xenograft model. FIG. 31A is a plot of tumor volume over time and FIG. 31B is a plot of percent survival over time. Mice were dosed with alvocidib, qdx2, and/or an HMA, qdx3 on a weekly basis. Doses are indicated in mg/kg (mpk).
[…] show results from aggressive daily dosing of alvocidib and decitabine in the MOLM13 model. Tumor bearing mice were treated. Doses and schedule are indicated. FIG. 32A plots tumor volume following treatment and FIG. 32B plots body weight following treatment.

[1] = system: NOXA expression in MOLM13 xenograft; experiment: Western blot for NOXA from MOLM13 xenograft treated with decitabine; assay type: in vivo; details: decitabine 1 mg/kg IP, 24 hours
Description: (§1) In the decitabine experiments (FIGS. 24 and 36), the MV-4-11 AML cell line and MOLM13 cell line model for secondary AML (prior MDS) were used. MV-4-11 AML cells (or MOLM13 cells as indicated) were treated with indicated concentrations of decitabine for indicated times, and protein was assessed by Western blot for NOXA expression. […] FIGS. 24A and 24C are Western blots and FIG. 24B is a bar graph of mRNA concentrations. […] The Western blot was prepared from a MOLM13 xenograft treated with decitabine at 1 mg/kg IP for 24 hours.

[2] = system: NOXA expression in MV-4-11 AML cells / MOLM13 cells; experiment: Western blot for NOXA expression in AML cell lines treated with HMAs; assay type: cell-based
Description: as §1
In the azacitidine experiments (FIG. 25), MV-4-11 AML cells were treated with indicated concentrations of azacitidine for 24 hours and protein assessed by Western blot for NOXA expression.

[3] = system: NOXA and MCL-1 expression in CD34+ MDS BMMNC; experiment: Pharmacodynamic marker study, Western blot NOXA/MCL-1 in CD34+ MDS BMMNC; assay type: cell-based, human; details: Patient 0219; azacitidine 0.3 or 0.6 μM 24 hours, then alvocidib 0.1 μM 6 hours
Description: A pharmacodynamic maker study was performed for azaditidine and alvocidib using MDS patient-derived BMMNC from Cureline. CD34^+ cells were isolated by CD34 MicroBead Kit (Miltenyi Biotec) and cultured in StemSpan™ SFEM II with StemSpan™ CD34^+ Expansion Supplement (STEMCELL Technologies). […] Protein was extracted using RIPA buffer with protease and phosphatase inhibitor cocktail. Protein expression was assessed by Western blot using NOXA (CST, Cat #14766S), MCL-1(CST, Cat #392245) and β-actin (CST, Cat #4967L) antibodies. Apoptotic activity was assessed by Caspase-Glo® 3/7 assay (Promega).

CD34+ MDS BMMNC [4] = experiment: Caspase-Glo 3/7 apoptotic activity in CD34+ MDS BMMNC (Example 17 efficacy study); assay type: cell-based, human; details: azacitidine 100 nM 24 hours, alvocidib 100 nM 24 hours
Description: CD34^+ cells were isolated by CD34 MicroBead Kit (Miltenyi Biotec) and cultured in StemSpan™ SFEM II with StemSpan™ CD34^+ Expansion Supplement (STEMCELL Technologies). […] Apoptotic activity was assessed by Caspase-Glo® 3/7 assay (Promega).

CD34+ MDS BMMNC [5] = experiment: Caspase-Glo 3/7 apoptotic activity in CD34+ MDS BMMNC (Example 16); assay type: cell-based, human; details: then DMSO or alvocidib 0.1 μM 6 hours
Description: A pharmacodynamic maker study was performed for azaditidine and alvocidib using MDS patient-derived BMMNC from Cureline. CD34^+ cells were isolated by CD34 MicroBead Kit (Miltenyi Biotec) and cultured in StemSpan™ SFEM II with StemSpan™ CD34^+ Expansion Supplement ([…] Technologies). Cells were seeded in 6-well plates and treated with DMSO or azacitidine (0.3 or 0.6 μM) for 24 hours. Following that, DMSO or alvocidib (0.1 μM) was sequentially added, and the cells were incubated for an additional 6 hours. Protein was extracted using RIPA buffer with protease and phosphatase inhibitor cocktail. Protein expression was assessed by Western blot using NOXA (CST, Cat #14766S), MCL-1(CST, Cat #392245) and β-actin (CST, Cat #4967L) antibodies. Apoptotic activity was assessed by Caspase-Glo® 3/7 assay (Promega).

MDS BMMC's = experiment: Cell viability following 48 hours treatment (FIGS. 26A/26B; IC50 in MDS BMMC's); assay type: cell-based
Excerpt: (§2) Additionally, an assay has been tested in bone marrow mononuclear cells (BMMCs) from AML and MDS patients to examine MCL-1 dependency prior to therapy with alvocidib. […] Combination studies are currently under investigation to determine whether enhanced anti-cancer activity is observed through pharmacologic downregulation of MCL-1 via CDK9 inhibition by alvocidib and upregulation of the MCL-1 antagonist NOXA after HMA exposure.
FIGS. 26A and 26B are scatter plots showing cell viability following 48 hours treatment at indicated concentrations of azacytidine (alone) or alvocidib (alone). FIG. 26A is a plot of cell viability following 48-hour treatment against indicated concentrations of azacitidine. […] FIG. 26B is a plot of cell viability following 48-hour treatment against indicated concentrations of alvocidib.

MV-4-11 cells = experiment: MCL-1 dependency assay (T-MS1, Dioc6) in MV-4-11 cells; assay type: cell-based; details: for MCL-1 dependency versus DMSO controls: 24 hours
[6] = system: MDS patient-derived BMMCs (blasts); experiment: T-MS1 based MCL-1 dependency assay on MDS patient blasts; assay type: cell-based, human
Description: To determine the patients' cells' dependency on MCL-1 anti-apoptotic protein for survival, the MCL-1 binding protein, MS I with N-terminal modifications for improved cell penetrance was utilized. The modified peptide is referred to as T-MS1. When added to cells, T-MS1 crosses the plasma membrane and antagonizes MCL-I, leading to mitochondrial outer membrane […] (MOMP) formation and subsequently, depolarization of the mitochondria. Mitochondrial potential was assessed using the cationic dye, DiOC2(3), which accumulates in negatively-charged, healthy mitochondria. Fresh or previously frozen MDS bone marrow cells were treated with azacitidine or DMSO control in media containing RPMI+10% FBS+pen/strep for 48 hours prior to being interrogated with T-MS1. After blocking and staining with antibody cocktail to gate on MDS blasts, T-MS1 was added and cells were incubated for 30 minutes at 37° C. After T-MS1 treatment, cells were washed and stained with cationic dye, Dioc6, for 90 minutes to assess mitochondrial depolarization via flow cytometric analysis. Priming % was calculated using the formula: […]
For concordance with prior priming values, an additional calibration factor of 1.6 was applied to patient priming values.
To determine the patients' cells' MCL-1 dependency following treatment with azacitidine, MDS patient-derived BMMCs were treated with DMSO, 0.3 μM azacitidine, 1 μM azacitidine or 2.5 μM azacitidine for 48-72 hours before being assessed by the MCL-1 dependency assay.

[7] = system: pRpb1 and MCL1 in primary MDS BMMCs; experiment: pRpb1 and MCL1 levels in MDS patient cells after alvocidib; assay type: cell-based, human; details: relative to DMSO
Excerpt: It has been shown that alvocidib reduces RNA pol II phosphorylation and MCL-1 expression in vitro. […] Phospho-RNA polymerase (pRpb1) and MCL-1 (MCL1) levels are decreased after alvocidib treatment in MDS patient cells (FIG. 23). Levels are indicated as a percent relative to levels measured for a DMSO treated sample. Numbers in parenthesis represent concentrations in nM for each alvocidib (Alvo) treatment.
as §2, with “alvocidib. Approximately 25% of AML patient BMMCs and 60% of MDS patient BMMCs are MCL-1 dependent. Azacitidine and decitabine increased NOXA expression in AML cell line models.” for “alvocidib.”

AML patients = experiment: NOXA priming of pre-treatment bone marrow versus response to alvocidib in AML patients; assay type: in vivo, human; details: patients with pre-treatment bone marrow NOXA priming greater than or equal to 40%
Excerpt: Furthermore, high NOXA Priming (MCL-1 dependence) is predictive of alvocidib sensitivity in AML patients. […] FIG. 16A is a box-plot showing that high NOXA priming (MCL-1 dependence) is predictive of alvocidib sensitivity in acute myeloid leukemia (AML) patients. The box-plot plots NOXA priming in complete remission and no response patient bone marrow samples taken from patients prior to being treated with alvocidib. […] NR=no response). The box-plot plots NOXA priming in complete remission and no response patient bone marrow samples taken from patients prior to being treated with 7+3 chemotherapy.

circulating blasts = details: three-day dosing, in the clinic; cited from earlier work
[8] = system: RNA pol II phosphorylation and MCL-1 expression in MV-4-11 AML cells; experiment: Flow cytometry of RNA pol II phosphorylation and MCL-1 expression in MV-4-11 AML cells; assay type: cell-based; details: 24-hour treatment
[9] = system: MCL-1 and NOXA expression in MV-4-11 cells; experiment: Western blot of NOXA and MCL-1 in MV-4-11 cells, alvocidib and azacytidine; assay type: cell-based; details: with azacytidine
Excerpt: FIG. 28A is an overview of an experimental used to evaluate an interaction between alvocidib and azacytidine with regard to MCL-1 and NOXA expression. FIG. 28B is a Western blot showing NOXA and MCL-1 levels in cells treated according to the experiment summarized in FIG. 28A at indicated drug concentrations.

OCI AML3 xenograft model = experiment: OCI AML3 xenograft model; assay type: in vivo
[10] = system: MCL-1 expression in MV4-11 cells; experiment: Western blot of MCL-1 protein in MV4-11 cells treated with alvocidib; assay type: cell-based
Excerpt: FIG. 9 is an illustration of a proposed mechanism by which alvocidib inhibits expression of MCL-1 by inhibiting CDK9.

THP-1 AML model = experiment: THP-1 AML xenograft model; assay type: in vivo; details: alvocidib alone
clinical = details: human, in vivo; for AUC(0-t): 75 mg/m2, AUC(0-27); for Cmax: 75 mg/m2, Cmax; for Tmax: 75 mg/m2, Tmax
Excerpt: Plasma PK analyses for alvocidib and known metabolites, if any, and dose proportionality will be determined on Days 8 and 9 (for patients receiving alvocidib following DEC) or Days 10 and 11 (for patients receiving alvocidib following AZA) of Cycle 1 in all patients enrolled in the study, according to Table 5 or Table 6: […]

[11] = system: luciferase expressing MV4-11 model; experiment: Luciferase expressing MV4-11 AML xenograft model; assay type: in vivo; details: alvocidib alone

Nc1ncn([C@H]2C[C@H](O)[C@@H](CO)O2)c(=O)n1 [decitabine]
tumor growth inhibition (% TGI) (MOLM13 xenograft model): 58.6%
NOXA expression (Western blot) in xenograft [1]: increase in NOXA expression
NOXA expression in AML cell line models [2]: increased
NOXA expression (Western blot), decitabine ([2]; MV-4-11 AML cells or MOLM13 cells, indicated times): time-dependent increase

Nc1ncn([C@@H]2O[C@H](CO)[C@@H](O)[C@H]2O)c(=O)n1 [azacitidine]
NOXA and MCL-1 protein expression (Western blot) versus DMSO [3]: induced NOXA expression
increase of apoptotic activity versus DMSO (CD34+ MDS BMMNC [4]; Patient 0219): 20%
increase of apoptotic activity versus DMSO (CD34+ MDS BMMNC [4]; Patient 1115 (high-risk MDS)): 35%
increase in apoptotic activity versus DMSO (CD34+ MDS BMMNC [5]; azacitidine 0.3 μM 24 hours): 52%
increase in apoptotic activity versus DMSO (CD34+ MDS BMMNC [5]; azacitidine 0.6 μM 24 hours): 62%
IC50 (MDS BMMC's): ~1000 nM
NOXA expression in AML cell line models [2]: increased
NOXA expression (Western blot), azacitidine ([2]; MV-4-11 AML cells, 24 hours): dose-dependent increase
MCL-1 dependency versus DMSO controls (MV-4-11 cells): sensitized MV4-11 cells to MCL-1 dependent apoptosis
MCL-1 dependency versus DMSO controls (MV-4-11 cells; listed as azacytidine): increased MCL-1 dependency
MCL-1 dependence (MV-4-11 cells; azacitidine 2.5 μM): 29.6%
priming trend across MDS bone marrow samples ([6]; 0.3, 1 and 2.5 μM azacitidine): dose-dependent increase in priming
percent priming ([6]; Patient 0216's blasts, 1 μM azacitidine): 115.3%
percent priming ([6]; Patient 0216's blasts, 2.5 μM azacitidine): 132.1%
percent priming ([6]; Patient 0515's blasts, 1 μM azacitidine): 82.1%
percent priming ([6]; Patient 0515's blasts, 2.5 μM azacitidine): 81.6%
percent priming ([6]; Patient 1060's blasts, 72-hour, 0.3 μM azacitidine): 45.8%
percent priming ([6]; Patient 1060's blasts, 72-hour, 1 μM azacitidine): 60.9%
maximum increase in priming ([6]; one patient sample): 35%

CN1CC[C@H](c2c(O)cc(O)c3c(=O)cc(-c4ccccc4Cl)oc23)[C@H](O)C1 [alvocidib]
NOXA and MCL-1 protein expression (Western blot) versus DMSO [3]: suppressed MCL-1 expression
Phospho-RNA polymerase (pRpb1) and MCL-1 (MCL1) levels [7]: decreased
Phospho-RNA polymerase (pRpb1) and MCL-1 (MCL1) levels ([7]; listed as Alvocidib): dose dependent reduction
increase of apoptotic activity versus DMSO (CD34+ MDS BMMNC [4]; Patient 0219): 31%
increase of apoptotic activity versus DMSO (CD34+ MDS BMMNC [4]; Patient 1115 (high-risk MDS)): 240%
tumor growth inhibition (% TGI) (MOLM13 xenograft model): 75.8%
complete recovery rate (AML patients): 100%
IC50 (MDS BMMC's): ~100 nM
average reduction of circulating blasts (circulating blasts): greater than 75%
inhibition of RNA pol II phosphorylation and MCL-1 expression [8]: dose-dependent
MCL-1 and NOXA levels (Western blot) [9]: inhibits upregulation of MCL-1 by azacytidine without affecting NOXA induction
tumor growth inhibition (% TGI) (OCI AML3 xenograft model): 55.0%
MCL-1 protein in response to alvocidib (Western blot) ([10]; FIG. 8 left panel): dose-dependent decrease
duration of knock-down of MCL-1 ([10]; MV4-11 cells, 80 nM alvocidib): exceeds 96 hours
TGI (THP-1 AML model): 30.8%
decrease of AUC going from cohort 4 to cohort 5 (clinical): 47.6%
decrease of Cmax going from cohort 4 to cohort 5 (clinical): 15.4%
AUC(0-t) (clinical): 3410 ng·h/mL
AUC(0-t) (clinical; Mean): 4080 ng·h/mL
Cmax (clinical): 868 ng/mL
Cmax (clinical; Mean): 924 ng/mL
half-life (clinical; 75 mg/m2, T1/2): 494 min
half-life (clinical; 75 mg/m2, T1/2, Mean): 480 min
Tmax (clinical): 0 h
Tmax (clinical; Mean): 0 h
total flux count [11]: complete abrogation
